Laboratory results from PMC12011786, “Pharmacokinetics and stability of methoxyflavones from Kaempferia parviflora in Thai native roosters” (Frontiers in Veterinary Science, 2025).
Like-named read-outs stand apart in the source and are kept apart here.

Test: Pharmacokinetics of methoxyflavones after single oral administration of KP ethanolic extract in roosters
Assay type: in vivo, Thai native roosters (Pradu Hang Dum breed)
Conditions: for AUC / Cmax / Tmax / half-life / k el: male, Thai native Pradu Hang Dum, whole blood; for AUC: po; for Cmax / Tmax / half-life / Cl / Vd: n = 9; for k el: n = 9, read-out: Ke (converted)
Experimental: Twenty-seven male Thai native Pradu Hang Dum breed roosters were selected for this study. The sample size was calculated by using the G*power program with the following parameters: α = 0.05, power of test = 0.8, standard deviation = 0.05, and effect size = 0.6. The sample size was nine in each group. […] All animals were obtained from the Research and Development Network Center of Animal Breeding and Omics at Khon Kaen University, Thailand. The roosters were housed in separate cages (60 × 45 × 45 cm) within an open-house system. They were fed a daily commercial diet of 130 g, containing 16% crude protein. Water was provided ad libitum throughout the study.
Blood samples (1 mL) were collected from the brachial vein of each rooster after gentle restraint. The collected blood was immediately transferred into a 1.5 mL microtube containing 10% heparin and gently inverted several times to ensure thorough mixing and prevent clot formation.
The roosters were randomly divided into three groups (n = 9 per group) and orally administered KP extract at different doses: 100, 150, and 200 mg/kg of body weight. The KP extract was prepared by dissolving in a solution of 28% propylene glycol, 35% polyethylene glycol 400, 2% ethanol, and deionized water (added until the total volume was 100%). For the method of animal administration, two individuals administered the KP extract to the chickens. One person restrained each chicken by holding its wings and legs, while the other administered the extract orally via a 10 mL syringe, according to body weight.
After oral administration, blood samples were collected at certain time intervals (0.5, 1, 2, 4, 6, and 12 h). The samples were then stored at −20°C until further analysis.
To extract methoxyflavones from the blood samples, all samples were extracted by liquid–liquid extraction two times using acetonitrile. Each sample was vortexed for 2 min and sonicated for 5 min with 1 mL of acetonitrile. After centrifugation at 2,000 × g for 2 min, the supernatant was transferred to clean microtubes, evaporated to dryness, and reconstituted with 200 μL of methanol. The samples were then filtered through 0.45-μm syringe filters and analyzed using an HPLC assay. Pharmacokinetic parameters were determined using the PKSolver add-in program ([21]).

[1] = 100 mg/kg, single oral KP extract 100 mg/kg, blood, n = 9, read-out: AUC
[2] = 150 mg/kg, single oral KP extract 150 mg/kg, blood, n = 9, read-out: AUC
[3] = 200 mg/kg, range over oral KP extract doses 100, 150, 200 mg/kg, read-out: area under the curve (AUC)
[4] = 200 mg/kg, single oral KP extract 200 mg/kg, blood, n = 9, read-out: AUC
[5] = single oral KP extract 100 mg/kg, blood
[6] = single oral KP extract 150 mg/kg, blood
[7] = single oral KP extract 200 mg/kg, blood

| Structure (SMILES) | AUC [1] | AUC [2] | AUC [3] | AUC [4] | Cmax [5] | Tmax [5] | half-life [5] | k el [5] | Cmax [6] | Tmax [6] | half-life [6] | k el [6] | Cmax [7] | Tmax [7] | half-life [7] | k el [7] | Cl [5] | Vd [5] | Cl [6] | Vd [6] | also measured |
| --- | --- | --- | --- | --- | --- | --- | --- | --- | --- | --- | --- | --- | --- | --- | --- | --- | --- | --- | --- | --- | --- |
| COc1cc(OC)c2c(=O)cc(-c3ccccc3)oc2c1 [DMF, 5,7-dimethoxyflavone] | 1020 ± 230 ng·h/mL | 1450 ± 170 ng·h/mL | 1020 to 1680 ng·h/mL | 1680 ± 570 ng·h/mL | 340 ± 100 ng/mL | 1.17 ± 0.37 h | 154 ± 29.4 min | 7.78e-05 s⁻¹ | 500 ± 50 ng/mL | 1.33 ± 0.49 h | 154 ± 12 min | 8.33e-05 s⁻¹ | 540 ± 80 ng/mL | 1.17 ± 0.37 h | 156 ± 16.8 min | 9.17e-05 s⁻¹ | 8.24 ± 1.78 L/h/kg | 18.9 ± 1.78 L/kg | 7.21 ± 1.66 L/h/kg | 19.1 ± 1.78 L/kg | Cl [7]: 7.37 ± 2.21 L/h/kg; Vd [7]: 19.5 ± 2.28 L/kg |
| COc1cc(OC)c2c(=O)c(OC)c(-c3ccc(OC)c(OC)c3)oc2c1 [PMF, 3,5,7,3′,4′-pentamethoxyflavone] | 2620 ± 340 ng·h/mL | 3010 ± 420 ng·h/mL | 2620 to 3060 ng·h/mL | 3060 ± 570 ng·h/mL | 640 ± 60 ng/mL | 1.83 ± 0.37 h | 122 ± 20.4 min | 9.72e-05 s⁻¹ | 810 ± 120 ng/mL | 1.8 ± 0.4 h | 134 ± 42.6 min | 0.000111 s⁻¹ | 830 ± 110 ng/mL | 1.83 ± 0.37 h | 136 ± 55.8 min | 0.000114 s⁻¹ | 2.46 ± 0.42 L/h/kg | 7.78 ± 0.63 L/kg | 2.83 ± 0.76 L/h/kg | 8.24 ± 1.14 L/kg | Cl [7]: 3.22 ± 0.52 L/h/kg; Vd [7]: 8.69 ± 1.25 L/kg |
| COc1ccc(-c2cc(=O)c3c(OC)cc(OC)cc3o2)cc1 [TMF, 5,7,4′-trimethoxyflavone] | 1200 ± 150 ng·h/mL | 1360 ± 150 ng·h/mL | 1200 to 1450 ng·h/mL | 1450 ± 120 ng·h/mL | 380 ± 90 ng/mL | 1.25 ± 0.56 h | 129 ± 42.6 min | 8.33e-05 s⁻¹ | 530 ± 60 ng/mL | 1.25 ± 0.4 h | 121 ± 18.6 min | 9.44e-05 s⁻¹ | 590 ± 60 ng/mL | 1.33 ± 0.47 h | 122 ± 22.2 min | 0.000103 s⁻¹ | 4.58 ± 0.59 L/h/kg | 17.8 ± 5.61 L/kg | 5.84 ± 0.67 L/h/kg | 20 ± 3.32 L/kg | Cl [7]: 4.95 ± 1.58 L/h/kg; Vd [7]: 12.7 ± 1.73 L/kg |
